Assay results as given in ChEMBL document CHEMBL3639364, “Preparation method of dihydroindene amide compounds, their pharmaceutical compositions containing compounds thereof and use as protein kinases inhibitor” (2014).

Key:
[1] = target: Platelet-derived growth factor receptor beta (Homo sapiens, UniProt P09619); experiment: (§1) Kinase buffer: 62.5 mM HEPES, pH 7.5; 0.001875% Brij-35; 12.5 mM MgCl2; 2.5 mM DTT. Stop buffer: 100 mM HEPES, pH 7.5; 0.015% Brij-35; 0.2% coating agent 3; 50 mM EDTA. Preparation of kinase solution: Kinase solution was obtained by dissolving kinases in the kinase buffer mentioned above. With regard to c-Kit kinase, the pre-activation treatments should be carried out as follows. 700 nM c-Kit, 2 mM ATP, 4 mM DTT and 10 mM MgCl2 were dissolved in kinase buffer. After being incubated at 28° C. for 15 minutes, the solution was added to the kinase buffer.
[2] = target: Mast/stem cell growth factor receptor Kit (Homo sapiens, UniProt P10721); experiment: as §1
Chain of Mast/stem cell growth factor receptor Kit (P10721 whole entry): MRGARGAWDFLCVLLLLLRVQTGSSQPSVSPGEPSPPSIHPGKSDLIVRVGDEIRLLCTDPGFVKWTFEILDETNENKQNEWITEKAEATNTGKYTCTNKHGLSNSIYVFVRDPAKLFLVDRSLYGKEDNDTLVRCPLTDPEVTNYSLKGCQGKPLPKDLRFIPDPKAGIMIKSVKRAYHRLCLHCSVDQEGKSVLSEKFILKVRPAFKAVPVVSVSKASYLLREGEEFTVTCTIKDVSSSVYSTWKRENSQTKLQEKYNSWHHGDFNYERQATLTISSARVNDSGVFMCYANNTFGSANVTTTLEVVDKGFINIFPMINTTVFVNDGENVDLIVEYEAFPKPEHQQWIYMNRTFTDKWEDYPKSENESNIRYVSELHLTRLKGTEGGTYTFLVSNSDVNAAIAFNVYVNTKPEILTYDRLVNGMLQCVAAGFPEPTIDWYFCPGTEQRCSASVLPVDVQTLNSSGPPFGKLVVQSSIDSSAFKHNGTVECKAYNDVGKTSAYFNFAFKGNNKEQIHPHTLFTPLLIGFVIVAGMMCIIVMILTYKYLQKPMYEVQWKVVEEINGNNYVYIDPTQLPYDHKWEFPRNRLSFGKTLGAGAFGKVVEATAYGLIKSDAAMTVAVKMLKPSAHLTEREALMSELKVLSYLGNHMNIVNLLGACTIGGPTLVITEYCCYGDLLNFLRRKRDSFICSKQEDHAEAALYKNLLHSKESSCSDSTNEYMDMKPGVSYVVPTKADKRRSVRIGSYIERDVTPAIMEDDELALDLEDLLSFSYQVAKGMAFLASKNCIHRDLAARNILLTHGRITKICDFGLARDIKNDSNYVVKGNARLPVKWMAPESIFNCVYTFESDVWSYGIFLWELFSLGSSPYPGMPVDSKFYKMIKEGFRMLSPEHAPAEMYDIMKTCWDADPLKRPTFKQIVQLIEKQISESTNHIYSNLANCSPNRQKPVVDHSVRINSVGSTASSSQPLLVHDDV

Chain of Platelet-derived growth factor receptor beta (P09619 whole entry): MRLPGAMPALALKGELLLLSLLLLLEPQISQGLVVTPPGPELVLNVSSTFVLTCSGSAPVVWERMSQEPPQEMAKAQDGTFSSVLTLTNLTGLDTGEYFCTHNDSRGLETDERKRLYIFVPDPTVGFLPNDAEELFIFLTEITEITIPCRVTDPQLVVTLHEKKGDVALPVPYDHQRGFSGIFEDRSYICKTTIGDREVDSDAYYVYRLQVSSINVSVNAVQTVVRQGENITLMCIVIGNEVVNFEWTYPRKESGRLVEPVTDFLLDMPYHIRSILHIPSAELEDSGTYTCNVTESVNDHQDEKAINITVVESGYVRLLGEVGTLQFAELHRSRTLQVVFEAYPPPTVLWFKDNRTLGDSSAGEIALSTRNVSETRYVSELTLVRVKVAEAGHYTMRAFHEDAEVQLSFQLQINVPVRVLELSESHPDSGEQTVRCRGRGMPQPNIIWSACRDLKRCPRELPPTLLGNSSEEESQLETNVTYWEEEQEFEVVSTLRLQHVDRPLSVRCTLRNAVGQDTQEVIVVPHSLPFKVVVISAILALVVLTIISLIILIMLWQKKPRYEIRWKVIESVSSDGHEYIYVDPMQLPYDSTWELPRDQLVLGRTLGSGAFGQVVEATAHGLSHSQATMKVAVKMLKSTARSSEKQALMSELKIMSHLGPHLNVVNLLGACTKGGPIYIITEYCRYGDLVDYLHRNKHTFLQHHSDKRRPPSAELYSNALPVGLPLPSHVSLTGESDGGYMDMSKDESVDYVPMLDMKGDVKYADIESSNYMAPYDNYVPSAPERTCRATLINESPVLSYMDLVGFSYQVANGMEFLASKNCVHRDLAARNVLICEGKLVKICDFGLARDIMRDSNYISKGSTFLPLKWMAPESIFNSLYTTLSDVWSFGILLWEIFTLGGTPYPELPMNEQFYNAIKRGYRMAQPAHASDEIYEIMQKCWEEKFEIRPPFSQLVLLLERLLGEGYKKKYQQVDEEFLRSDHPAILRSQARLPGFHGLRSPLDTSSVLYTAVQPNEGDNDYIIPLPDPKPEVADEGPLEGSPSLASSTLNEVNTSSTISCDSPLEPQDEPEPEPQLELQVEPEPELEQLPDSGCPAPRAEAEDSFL

Row | IC50 [1] [nM] | IC50 [2] [nM] | SMILES
1 | 15 | 26 | CCN1CCN(C2CCc3cc(C(=O)Nc4ccc(C)c(Nc5nccc(-c6cccnc6)n5)c4)ccc32)CC1 (centres undefined)
2 | 21 | 32 | Cc1ccc(NC(=O)c2ccc3c(c2)CCC3N2CC[C@@H](N(C)C)C2)cc1Nc1nccc(-c2cccnc2)n1 (some centres undefined)
